According to ChEMBL document CHEMBL2086254, “Synthesis and identification of novel indolo[2,3-a]pyrimido[5,4-c]carbazoles as a new class of anti-cancer agents” (Eur J Med Chem, 2012):

Columns and labels:
Format in all cases: functional
[1] = Cytotoxicity against human Hs 578T cells after 48 hrs by SRB assay
NCI-H322M = assay: Cytotoxicity against human NCI-H322M cells after 48 hrs by SRB assay
Malme-3M = assay: Cytotoxicity against human MALME-3M cells after 48 hrs by SRB assay
NCI/ADR-RES = assay: Cytotoxicity against human NCI/ADR-RES cells after 48 hrs by SRB assay
MDA-MB-468 = assay: Cytotoxicity against human MDA-MB-468 cells after 48 hrs by SRB assay; details: MDA-MB-468, 48 h
OVCAR-5 = assay: Cytotoxicity against human OVCAR5 cells after 48 hrs by SRB assay; details: OVCAR-5, 48 h
SK-MEL-2 = assay: Cytotoxicity against human SK-MEL-2 cells after 48 hrs by SRB assay; details: SK-MEL-2, 48 h
IGROV-1 = assay: Cytotoxicity against human IGROV1 cells after 48 hrs by SRB assay; details: IGROV-1, 48 h
NCI-H522 = assay: Cytotoxicity against human NCI-H522 cells after 48 hrs by SRB assay; details: NCI-H522, 48 h
SF-539 = assay: Cytotoxicity against human SF539 cells after 48 hrs by SRB assay; details: SF-539, 48 h
DU-145 = assay: Cytotoxicity against human DU145 cells after 48 hrs by SRB assay; details: DU-145, 48 h
NCI-H23 = assay: Cytotoxicity against human NCI-H23 cells after 48 hrs by SRB assay; details: NCI-H23, 48 h
SN12C = assay: Cytotoxicity against human SN12C cells after 48 hrs by SRB assay
ACHN = assay: Cytotoxicity against human ACHN cells after 48 hrs by SRB assay
SW-620 = assay: Cytotoxicity against human SW620 cells after 48 hrs by SRB assay; details: SW-620, 48 h
NCI-H226 = assay: Cytotoxicity against human NCI-H226 cells after 48 hrs by SRB assay; details: NCI-H226, 48 h
SK-OV-3 = assay: Cytotoxicity against human SKOV3 cells after 48 hrs by SRB assay; details: SK-OV-3, 48 h
HCT-116 = assay: Cytotoxicity against human HCT116 cells after 48 hrs by SRB assay; details: HCT-116, 48 h
CCRF-CEM = assay: Cytotoxicity in human CCRF-CEM cells after 48 hrs by SRB assay
NCI-H460 = assay: Cytotoxicity against human NCI-H460 cells after 48 hrs by SRB assay; details: NCI-H460, 48 h
HCC 2998 = assay: Cytotoxicity against human HCC2998 cells after 48 hrs by SRB assay; details: HCC 2998, 48 h
COLO 205 = assay: Cytotoxicity against human COLO205 cells after 48 hrs by SRB assay; details: COLO 205, 48 h
UO-31 = assay: Cytotoxicity against human UO31 cells after 48 hrs by SRB assay; details: UO-31, 48 h
MDA-MB-435 = assay: Cytotoxicity against human MDA-MB-435 cells after 48 hrs by SRB assay; details: MDA-MB-435, 48 h
OVCAR-8 = assay: Cytotoxicity against human OVCAR8 cells after 48 hrs by SRB assay; details: OVCAR-8, 48 h
CAKI-1 = assay: Cytotoxicity against human Caki1 cells after 48 hrs by SRB assay; details: CAKI-1, 48 h
EKVX = assay: Cytotoxicity against human EKVX cells after 48 hrs by SRB assay
SK-MEL-5 = assay: Cytotoxicity against human SK-MEL-5 cells after 48 hrs by SRB assay; details: SK-MEL-5, 48 h
SF-268 = assay: Cytotoxicity against human SF268 cells after 48 hrs by SRB assay; details: SF-268, 48 h
KM12 = assay: Cytotoxicity against human KM12 cells after 48 hrs by SRB assay; details: KM12, 48 h
TK-10 = assay: Cytotoxicity against human TK10 cells after 48 hrs by SRB assay; details: TK-10, 48 h
786-0 = assay: Cytotoxicity against human 786-0 cells after 48 hrs by SRB assay; details: 786-0, 48 h
[2] = Cytotoxicity against human breast cancer cell after 48 hrs by SRB assay; details: Cancer cell lines
A549 = assay: Cytotoxicity against human A549 cells after 48 hrs by SRB assay; details: A549, 48 h
[3] = read-out: LC50 (the source's name)

**Q.** What does the source list for Cn1c2ccccc2c2c3nc(N)[nH]c(=O)c3c3c4ccccc4n(C)c3c21?
**A.** GI50 [1]: 10.2 µM; TGI [1]: > 100 µM; CC50 [1, 3]: > 100 µM; GI50 (NCI-H322M): 5.3 µM; TGI (NCI-H322M): > 100 µM; CC50 (NCI-H322M; [3]): > 100 µM; GI50 (Malme-3M): 14.5 µM; TGI (Malme-3M): 74.8 µM; CC50 (Malme-3M; [3]): > 100 µM; GI50 (NCI/ADR-RES): 3.87 µM; TGI (NCI/ADR-RES): > 100 µM; CC50 (NCI/ADR-RES; [3]): > 100 µM; GI50 (MDA-MB-468): 21.7 µM; TGI (MDA-MB-468): 75.1 µM; CC50 (MDA-MB-468; [3]): > 100 µM; GI50 (OVCAR-5): 52.3 µM; TGI (OVCAR-5): > 100 µM; CC50 (OVCAR-5; [3]): > 100 µM; GI50 (SK-MEL-2): 1.9 µM; TGI (SK-MEL-2): 7.59 µM; CC50 (SK-MEL-2; [3]): 76.5 µM; GI50 (IGROV-1): 31.3 µM; TGI (IGROV-1): > 100 µM; CC50 (IGROV-1; [3]): > 100 µM; GI50 (NCI-H522): 14.5 µM; TGI (NCI-H522): > 100 µM; CC50 (NCI-H522; [3]): > 100 µM; GI50 (SF-539): 18.4 µM; TGI (SF-539): 56.6 µM; CC50 (SF-539; [3]): > 100 µM; GI50 (DU-145): 8.2 µM; TGI (DU-145): > 100 µM; CC50 (DU-145; [3]): > 100 µM; GI50 (NCI-H23): 3.51 µM; TGI (NCI-H23): > 100 µM; CC50 (NCI-H23; [3]): > 100 µM; GI50 (SN12C): 6.49 µM; TGI (SN12C): > 100 µM; CC50 (SN12C; [3]): > 100 µM; GI50 (ACHN): 1.11 µM; TGI (ACHN): > 100 µM; CC50 (ACHN; [3]): > 100 µM; GI50 (SW-620): 4.05 µM; TGI (SW-620): > 100 µM; CC50 (SW-620; [3]): > 100 µM; GI50 (NCI-H226): 30.6 µM; TGI (NCI-H226): > 100 µM; CC50 (NCI-H226; [3]): > 100 µM; GI50 (SK-OV-3): 3.56 µM; TGI (SK-OV-3): > 100 µM; CC50 (SK-OV-3; [3]): > 100 µM; GI50 (HCT-116): 3.2 µM; TGI (HCT-116): 35.3 µM; CC50 (HCT-116; [3]): > 100 µM; GI50 (CCRF-CEM): 3.41 µM; TGI (CCRF-CEM): > 100 µM; CC50 (CCRF-CEM; [3]): > 100 µM; GI50 (NCI-H460): 3.06 µM; TGI (NCI-H460): > 100 µM; CC50 (NCI-H460; [3]): > 100 µM; GI50 (HCC 2998): 6.08 µM; TGI (HCC 2998): > 100 µM; CC50 (HCC 2998; [3]): > 100 µM; GI50 (COLO 205): 7.99 µM; TGI (COLO 205): 39.4 µM; CC50 (COLO 205; [3]): > 100 µM; GI50 (UO-31): 1.37 µM; TGI (UO-31): > 100 µM; CC50 (UO-31; [3]): > 100 µM; GI50 (MDA-MB-435): 3.39 µM; TGI (MDA-MB-435): 22.3 µM; CC50 (MDA-MB-435; [3]): > 100 µM; GI50 (OVCAR-8): 3.82 µM; TGI (OVCAR-8): > 100 µM; CC50 (OVCAR-8; [3]): > 100 µM; GI50 (CAKI-1): 1.33 µM; TGI (CAKI-1): > 100 µM; CC50 (CAKI-1; [3]): > 100 µM; GI50 (EKVX): 12.7 µM; TGI (EKVX): > 100 µM; CC50 (EKVX; [3]): > 100 µM; GI50 (SK-MEL-5): 3.25 µM; TGI (SK-MEL-5): 13.7 µM; CC50 (SK-MEL-5; [3]): 37.9 µM; GI50 (SF-268): 15.8 µM; TGI (SF-268): > 100 µM; CC50 (SF-268; [3]): > 100 µM; GI50 (KM12): 3.24 µM; TGI (KM12): 32.3 µM; CC50 (KM12; [3]): > 100 µM; GI50 (TK-10): 7.14 µM; TGI (TK-10): > 100 µM; CC50 (TK-10; [3]): > 100 µM; GI50 (786-0): 7.7 µM; TGI (786-0): 54.4 µM; CC50 (786-0; [3]): > 100 µM; GI50 [2]: 2.13 µM; TGI [2]: 44.1 µM; CC50 [2, 3]: > 100 µM; GI50 (A549): 5.8 µM; TGI (A549): > 100 µM; CC50 (A549; [3]): > 100 µM
